Measurements reported in paper doi:10.1101/2025.03.13.643086, “Granzyme-targeting quenched activity-based probes for assessing tumor response to immunotherapy” (bioRxiv, 2025).
One block for each molecule: values may come before it. Non-standard residues stand in square brackets, D forms with d. Residues, ends and D or L forms follow the SMILES beside them. *: point of attachment. Abu(4-SO3H) = N[C@@H](CCS(=O)(=O)O)C(=O)O; ACC = NC(=O)Cc1cc(=O)oc2cc(N*)ccc12; Cya = N[C@@H](CS(=O)(=O)O)C(=O)O

What was measured:
[1] = target: recombinant human active GzmB (Homo sapiens, UniProt P10144); test: Enzyme cleavage assay / Michaelis-Menten kinetics of fluorogenic substrates with GzmB; format: biochemical; conditions: 10 nM GzmB
Chain of recombinant human active GzmB (P10144 21-247): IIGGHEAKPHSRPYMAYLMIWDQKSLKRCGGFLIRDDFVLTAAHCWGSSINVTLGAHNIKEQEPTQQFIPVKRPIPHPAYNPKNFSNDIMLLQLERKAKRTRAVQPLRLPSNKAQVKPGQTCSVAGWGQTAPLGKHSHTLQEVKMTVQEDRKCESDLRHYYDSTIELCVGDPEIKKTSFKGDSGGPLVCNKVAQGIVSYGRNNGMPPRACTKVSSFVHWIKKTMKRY
Description: (§1) Figure 1. Isosteric substitution of carboxylic acid at P1 with sulfonic acid enhances selectivity for GzmB over Casp-8. (A) Chemical structures of tetrapeptide fluorogenic substrates 1-4. (B) Enzyme cleavage assay. 100 μM of each substrate was incubated with either recombinant human active GzmB (10 nM) or Casp-8 (5 nM) and fluorescence was measured at Ex/Em: 380/460 nm for 1 h. The initial velocity (V0) of each substrate was normalized to that of the control substrate Ac-IEPD-ACC (1). […] (C) Kinetic measurement. The Michaelis-Menten plot and kinetic parameters were generated with varying concentrations of each substrate 1 and 2 incubated with recombinant human active GzmB (10 nM) and Casp-8 (5 nM). […] (D) Chemical structures of inhibitors 5-7. (E) GzmB inhibition. Recombinant human active GzmB (2 U/μL) was incubated with varying concentrations of each inhibitor and the residual activity of GzmB was measured by the cleavage of Ac-IEPD-AMC fluorogenic substrate and normalized to DMSO control.
(§2) All kinetic experiments were performed on a spectrofluorometer (Biotek cytation5 or Synergy|Mx microplate reader) and analyzed using Microsoft Excel and GraphPad Prism. […]
(v/v) Tween-20, pH 7.5. Assay buffers were prepared at room temperature while the kinetic experiments were performed at 37 °C. Data are presented as the mean with standard deviation (at least two independent experiments). For kinetic experiments, pro-GzmB (0.22 mg/mL) was activated with mouse cathepsin C (22 µg/mL in 50 mM MES, 50 mM NaCl, pH 5.5) and diluted in assay buffer. Alternatively, active GzmB at 100 U/µL was purchased from Enzo Life Sciences (#BML-SE238-5000) and diluted in assay buffer. Conditions for individual experiments are […]
(§3) Figure 1B-C: 10 nM of active GzmB or 5 nM of Casp-8 were treated with different substrates (compounds 1-4) and recorded fluorescence (Ex/Em: 380/460 nm) for 1 h at 37 °C. To determine Michaelis-Menten constants, cleavage assays with 10 nM of GzmB or 5 nM of Casp-8 were performed with different concentrations of substrates 1 and 2. […]
(§4) Working concentrations were prepared by further diluting in the assay buffer before use. Mouse pro-GzmB (0.474 mg/mL) was also activated with mCatC (52.14 µg/mL in 50 mM MES, 50 mM NaCl, pH 5.5), diluted in assay buffer and stored as 500 nM aliquots at - 80 °C, which were further diluted in assay buffer to make final working concentrations. In-gel fluorescence images were acquired on a Typhoon FLA9500 instrument while western blot and Coomassie staining images were acquired on an AMHERST ImageQuant 800 instrument.

Casp-8 = Casp-8 (Homo sapiens, UniProt Q14790); test: Enzyme cleavage assay / Michaelis-Menten kinetics of fluorogenic substrates with Casp-8; format: biochemical; conditions: 100 μM substrate, 5 nM Casp-8, 1 h, V0 normalized to 1
Description: as §1, §2
(§5) (v/v) Tween-20, pH 7.5. Assay buffers were prepared at room temperature while the kinetic experiments were performed at 37 °C. Data are presented as the mean with standard deviation (at least two independent experiments). […]
(§6) (#BML-SE238-5000) and diluted in assay buffer. Conditions for individual experiments are […]
as §3
Working concentrations were prepared by further diluting in the assay buffer before use. […] In-gel fluorescence images were acquired on a Typhoon FLA9500 instrument while western blot and Coomassie staining images were acquired on an AMHERST ImageQuant 800 instrument.

[2] = substrate: CC[C@H](C)[C@H](NC(C)=O)C(=O)N[C@@H](CCC(=O)O)C(=O)N1CCC[C@H]1C(=O)N[C@@H](CC(=O)O)C(=O)Nc1ccc2c(CC(N)=O)cc(=O)oc2c1; test: as above; format: biochemical, human; conditions: other: 5 nM Casp-8, varying substrate concentrations, 37 °C
Description: as §1, §2, §5, §6, §3, §4

[3] = substrate: CC[C@H](C)[C@H](NC(C)=O)C(=O)N[C@@H](CCC(=O)O)C(=O)N1CCC[C@H]1C(=O)N[C@@H](CS(=O)(=O)O)C(=O)Nc1ccc2c(CC(N)=O)cc(=O)oc2c1; test: as above; format: biochemical, human; conditions: other: 5 nM Casp-8, varying substrate concentrations, 37 °C
Description: as §1, §2, §5, §6, §3, §4

[4] = 100 μM substrate, 1 h, V0 normalized to 1

cleavage by GzmB compared to Ac-IEPD-ACC (1), in words [1, 4]: routed for cleavage by GzmB | cleavage by Casp-8 compared to Ac-IEPD-ACC (1), in words (Casp-8): decreasing cross-reactivity with Casp-8
Molecule: CC[C@H](C)[C@H](NC(C)=O)C(=O)N[C@@H](CCS(=O)(=O)O)C(=O)N1CCC[C@H]1C(=O)N[C@@H](CS(=O)(=O)O)C(=O)Nc1ccc2c(CC(N)=O)cc(=O)oc2c1 [Compound 4] (Ac-I[Abu(4-SO3H)]P[Cya]-{ACC})

cleavage by GzmB compared to Ac-IEPD-ACC (1), in words [1, 4]: reduced cleavage by GzmB | cleavage by Casp-8 compared to Ac-IEPD-ACC (1), in words (Casp-8): increased cleavage by Casp-8
Molecule: CC[C@H](C)[C@H](NC(C)=O)C(=O)N[C@@H](CCS(=O)(=O)O)C(=O)N1CCC[C@H]1C(=O)N[C@@H](CC(=O)O)C(=O)Nc1ccc2c(CC(N)=O)cc(=O)oc2c1 [Compound 3] (Ac-I[Abu(4-SO3H)]PD-{ACC})

Molecule: CC[C@H](C)[C@H](NC(C)=O)C(=O)N[C@@H](CCC(=O)O)C(=O)N1CCC[C@H]1C(=O)N[C@@H](CS(=O)(=O)O)C(=O)Nc1ccc2c(CC(N)=O)cc(=O)oc2c1 [Compound 2, Ac-IEPCya-ACC] (Ac-IEP[Cya]-{ACC})
increase in turnover (kcat) for GzmB compared to Ac-IEPD-ACC (1) [1]: 10 fold | cleavage efficiency by GzmB compared to Ac-IEPD-ACC (1) [1, 4]: 6 fold | cleavage by Casp-8 compared to Ac-IEPD-ACC (1), in words (Casp-8): cleavage by Casp-8 was reduced

B1: Casp-8 (Homo sapiens) (protein)
chain 1: SESQTLDKVYQMKSKPRGYCLIINNHNFAKAREKVPKLHSIRDRNGTHLDAGALTTTFEELHFEIKPHDDCTVEQIYEILKIYQLMDHSNMDCFICCILSHGDKGIIYGTDGQEAPIYELTSQFTGLKCPSLAGKPKVFFIQACQGDNYQKGIPVETD
chain 2: LSSPQTRYIPDEADFLLGMATVNNCVSYRNPAEGTWYIQSLCQSLRERCPRGDDILTILTEVNYEVSNKDDKKNMGKQMPQPTFTLRKKLVFPSD
Km [2]: 359.9 µM | kcat [2]: 0.090 s⁻¹ | kcat/Km [2]: 250 M⁻¹ s⁻¹ | Km [3]: 506.3 µM | kcat [3]: 0.087 s⁻¹ | kcat/Km [3]: 172 M⁻¹ s⁻¹
